Entries after “also recorded” stand apart in the source; their conditions may differ. Structures can show the parent of a compound that is named as a salt.
What was measured:
Format in all cases: cell-based, human
FFAR2 signaling [1] = experiment: Western blot of phospho-ERK1/2 in SK-N-SH cells (FFAR2 signal activation); details: 10 μM, 30 min
Procedure: To determine the FFAR2 signal activating property of selected compounds, SK-N-SH cells were treated with 10 μM of shortlisted compounds for 30 min at 37° C. and harvested for total protein extraction. […] After sonication, cell extracts were centrifuged at 8,000×g for 10 min at 4° C., and the supernatant was separated in a fresh tube. The total protein concentration of the supernatant was measured using a BCA protein assay kit. An equal amount of total protein (45 μg) from each sample was dissolved in loading buffer and loaded in 4% stacking gel and 10% separating SDS-PAGE gel and resolved at 100 V. Proteins were transferred on a 0.22 μm PVDF membrane and blots were developed with anti-ERK1/2, anti-phosphoERK1/2, ubiquitin (P4D1), and Aβ (6E10) primary antibodies followed by their secondary antibodies and bands were visualized using the Pierce™ Fast Western Blot Kit, ECL Substrate acquired using Syngene Pxi. Band densities were also quantified using NIH ImageJ software. β-actin was used as an internal control.

SK-N-SH cells = experiment: Aβ-induced neurotoxicity, MTT viability assay; details: 10 μM CATPB, 25 μM Aβ
Procedure: To determine the impact of FFAR2 inhibition on Aβ-induced neuronal cell toxicity, the MTT viability assay was performed (Ronicke et al., 2008). SK-N-SH cells (1×10^3 cells per well) were plated in a 96-well plate containing DMEM medium supplemented with 10% FBS and 1% antibiotics and grown at 37° C. for 24 h. Then, media was removed, and cells were washed with PBS before being replenished with DMEM media containing 1% FBS and 10 μM FFAR2 inhibitor (CATPB, Tocris) and incubated at 37° C. for 2 h. Then, cells were treated with Aβ 25-32 peptide (25 μM, Sigma) and incubated for 4 h. Afterward, the media was replaced with 100 μl of fresh media, and 10 μl of MTT reagent (5 mg/ml in phosphate buffer [pH 7.2]) was added and mixed in each well before an additional 4 h incubation. Then, DMSO (50 μl) was added in each well and mixed thoroughly to dissolve formazan crystals. The absorbance was measured at 570 nm.

FFAR2 signaling [2] = experiment: cAMP-Glo assay, forskolin-induced cAMP in SK-N-SH cells; details: 10 μM compound, 10 μM forskolin
Procedure: FFAR2 is a Gi/o signaling receptor, which reduces cytosolic cAMP (Falomir-Lockhart et al., 2019). To determine the FFAR2 signaling activating potential of selected compounds, the cAMP-Glo™ Assay was used to measure intracellular cAMP. SK-N-SH cells (1×10^3 cells per well) were plated in a white 96-well plate for 24 h and then treated with 10 μM compounds and 10 μM forskolin (a positive control) dissolved in induction buffer. The cAMP levels were detected using a Luminescence Microplate Reader.

Compound	descending order of phospho-ERK1/2 levels (FFAR2 signaling [1])	Aβ-induced cell death / cell viability under FFAR2 inhibition (SK-N-SH cells)	cAMP upon Forskolin-stimulation, ascending order (FFAR2 signaling [2])
CC1(C)C2CCC1(C)C(O)C2 (centres unmarked) [Breneol]	Fenchol>Octopamine>Carvamenthenol>Camphene>Pentanone>Synephrine>Leucinamide>Carene>α-Terpineol>Breneol>L-Fenchone>D-Fenchone>Norpseudoephedrine HCl	–	–
O=C(O)C[C@H](Cc1ccc(C(F)(F)F)cc1)NC(=O)Cc1cccc(Cl)c1 [CATPB, reference compound]	–	further reduced cell viability; also recorded: further exacerbated Aβ-induced cell death	–
C=C1C2CCC(C2)C1(C)C (centres unmarked) [Camphene]	Fenchol>Octopamine>Carvamenthenol>Camphene>Pentanone>Synephrine>Leucinamide>Carene>α-Terpineol>Breneol>L-Fenchone>D-Fenchone>Norpseudoephedrine HCl	–	Fenchol<Carvamenthenol<α-Terpineol<Carene<Pentanone<Octopamine<Camphene
CC1(C)C(=O)[C@@]2(C)CCC1C2 [D-Fenchone]	Fenchol>Octopamine>Carvamenthenol>Camphene>Pentanone>Synephrine>Leucinamide>Carene>α-Terpineol>Breneol>L-Fenchone>D-Fenchone>Norpseudoephedrine HCl	–	–
CC1(C)C(=O)[C@@]2(C)CC[C@H]1C2 [L-Fenchone]	Fenchol>Octopamine>Carvamenthenol>Camphene>Pentanone>Synephrine>Leucinamide>Carene>α-Terpineol>Breneol>L-Fenchone>D-Fenchone>Norpseudoephedrine HCl	–	–
CC(C)C[C@H](N)C(N)=O [Leucinamide]	Fenchol>Octopamine>Carvamenthenol>Camphene>Pentanone>Synephrine>Leucinamide>Carene>α-Terpineol>Breneol>L-Fenchone>D-Fenchone>Norpseudoephedrine HCl	–	–
C[C@H](N)[C@@H](O)c1ccccc1 [Norpseudoephedrine HCl]	Fenchol>Octopamine>Carvamenthenol>Camphene>Pentanone>Synephrine>Leucinamide>Carene>α-Terpineol>Breneol>L-Fenchone>D-Fenchone>Norpseudoephedrine HCl	–	–
NCC(O)c1ccc(O)cc1 (centres unmarked) [Octopamine]	Fenchol>Octopamine>Carvamenthenol>Camphene>Pentanone>Synephrine>Leucinamide>Carene>α-Terpineol>Breneol>L-Fenchone>D-Fenchone>Norpseudoephedrine HCl	–	Fenchol<Carvamenthenol<α-Terpineol<Carene<Pentanone<Octopamine<Camphene
CNCC(O)c1ccc(O)cc1 (centres unmarked) [Synephrine]	Fenchol>Octopamine>Carvamenthenol>Camphene>Pentanone>Synephrine>Leucinamide>Carene>α-Terpineol>Breneol>L-Fenchone>D-Fenchone>Norpseudoephedrine HCl	–	–
CC1=CCC(C(C)(C)O)CC1 (stereo not drawn) [α-Terpineol]	Fenchol>Octopamine>Carvamenthenol>Camphene>Pentanone>Synephrine>Leucinamide>Carene>α-Terpineol>Breneol>L-Fenchone>D-Fenchone>Norpseudoephedrine HCl	–	Fenchol<Carvamenthenol<α-Terpineol<Carene<Pentanone<Octopamine<Camphene
Carene	Fenchol>Octopamine>Carvamenthenol>Camphene>Pentanone>Synephrine>Leucinamide>Carene>α-Terpineol>Breneol>L-Fenchone>D-Fenchone>Norpseudoephedrine HCl	–	Fenchol<Carvamenthenol<α-Terpineol<Carene<Pentanone<Octopamine<Camphene
Carvamenthenol	Fenchol>Octopamine>Carvamenthenol>Camphene>Pentanone>Synephrine>Leucinamide>Carene>α-Terpineol>Breneol>L-Fenchone>D-Fenchone>Norpseudoephedrine HCl	–	Fenchol<Carvamenthenol<α-Terpineol<Carene<Pentanone<Octopamine<Camphene

— patent publication US12447135B2 (University of South Florida, priority 2021, dated 2025)
